Experimental data from patent US6719976B1, “Peptide-based immunotherapeutic agent for treating allergic diseases” (Meiji Milk Products Co., Ltd., priority 1996, dated 2004).

Tests used:
Assay type in all cases: cell-based, human
[1] = tested on: T cell clones that specifically recognize Cry j 1 or Cry j 2; experiment: Identifying T cell epitope peptide recognized by T cell clone; conditions: 2 μM overlapping peptide; clones from patients
Source text: Two patients, Patient B (PB) and Patient J (PJ), who recognize Peptide Nos. 43 and 22 showing a high positivity index in Cry j 1 and three patients, who recognize Peptide Nos. 14, 38, 48, and 69 showing a high positivity index in Cry j 2 were selected from the eighteen patients with cedar pollinosis. Peripheral lymphocytes from these patients with cedar pollinosis were stimulated by Cry j 1 or Cry j 2 to establish T cell clones capable of recognizing Cry j 1 or Cry j 2. The types of HLA class I and class II molecules of the four patients are shown below.
Thirty-five T cell clones in total that specifically recognize Cry j 1 were established from the peripheral lymphocytes derived from PB, and 14 similar T cell clones from PJ. Likewise, 31 T cell clones, 10 T cell clones, and 17 T cell clones in total that specifically recognize Cry j 2 were established from the peripheral lymphocytes derived from PB, PC and PR, respectively. […] A mixture of 5×10^4 cells of the autologous B cell line previously treated with mitomycin C, 2 μM of an overlapping peptide, and 2×10^4 cells of the T cell clone was incubated for 2 days in RPMI-1640 medium supplemented with 0.2 ml of 15% serum on a 96-well micro culture plate. […] After the cells were harvested on a glass filter using a cell harvester, the level of [^3H] thymidine taken up into the cells was determined using a liquid scintillation counter. […]

HLA class II molecules = experiment: Identifying the HLA class II restriction molecules (transfected mouse L-cells or haplotype-matched B cell line as antigen-presenting cells); conditions: 2 μM peptide
Procedure: HLA class II restriction molecules can be identified using the T cell clones whose restriction molecules were identified at the HLA class II locus level and, as antigen-presenting cells, mouse L-cells transfected with each type for DR and B cell line having the same haplotype for DQ or DP.
A mixture of 5×10^4 mouse L cells previously treated with mitomycin C of the B cell line coincident in haplotype; 2 μM of an overlapping peptide; 3 μg/ml of anti-DR, -DQ or -DP monoclonal antibody (manufactured by Becton-Dickinson Inc.); and 2×10^4 cells of the T cell clone was incubated for 2 days in RPMI-1640 medium supplemented with 0.2 ml of 15% serum on a 96-well micro culture plate. After 0.5 μCi [^3H] thymidine was added to the medium, incubation was continued for a further 18 hours. After the cells were harvested on a glass filter using a cell harvester, the level of [^3H] thymidine taken up into the cells was determined using a liquid scintillation counter.

[2] = tested on: T cell line of each patient specifically recognizing Cry j 1 or Cry j 2; experiment: T cell line proliferation response to overlapping peptides ([3H] thymidine uptake); conditions: mean stimulation index multiplied by frequency of appearance; T cell lines of 18 patients; 2 μM peptide
Procedure: Peripheral lymphocytes from 18 patients with cedar pollinosis were stimulated by cedar pollen allergen Cry j 1 or Cry j 2to establish the T cell line of each patient capable of specifically recognizing the respective allergen.
A mixture of 5×10^4 cells of the autologous B cell line treated with mitomycin C, 2 μM of an overlapping peptide, and 2×10^4 cells of the T cell line was incubated for 2 days in RPMI-1640 medium supplemented with 0.2 ml of 15% serum on a 96-well culture plate. After 0.5 μCi [^3H] thymidine was added to the medium, incubation was continued for a further 18 hours. After the cells were harvested on a glass filter using a cell harvester, the level of [^3H] thymidine taken up into the cells was determined with a liquid scintillation counter. If the stimulation index is 2 or more, we consider that the added peptide is recognized as an antigenic peptide. The stimulation index means a value obtained by dividing the level of [^3H] thymidine taken up into the cells when the peptide was added by the level of [^3H] thymidine taken up into the cells when no peptide was added.
The HLA class II type is considered to vary in every patient. It is thus assumed that a T cell epitope to be recognized would vary depending on the HLA class II type. For this reason, the antigenic peptide that the patients recognized was mapped for the individual patient. […] On the allergen molecule, there are both regions that can be readily recognized and regions that can hardly be recognized, as a T cell epitope, depending on individuals. Moreover, since the proliferation rate of T cells varies depending on a T cell epitope, the epitope map alone makes it difficult to determine what antigenic peptide should be chosen to design the multi-epitope peptide.

T cell clones = experiment: Recognizing the T cell epitopes in the multi-epitope peptide C.A.#4 by T cell clones; conditions: clones PB8-3, PB8-34, PB4-22, PB14-5, PB14-3; C.A.#4 10 μg/ml
Procedure: The antigenic peptide constituting the multi-epitope peptide C.A.#4 obtained in Example 6 was examined to determine if the antigenic peptide actually functions as a T cell epitope.
On a 96-well micro culture plate, a mixture of 5×10^4 cells of the autologous B cell line previously treated with mitomycin C and 2×10^4 cells of the T cell clone was incubated for 2 days in 0.2 ml 15% serum-supplemented RPMI-1640 medium, together with, as an antigen, either 50 μg/ml of Cry j 1 and 2 μg/ml of Cry j 2, each antigenic peptide constituting the multi-epitope peptide C.A.#4 or 10 μg/ml C.A.#4 multi-epitope peptide produced by gene expression. After 0.5 μCi [^3H] thymidine was added to the medium, incubation was continued for a further 16 hours. After the cells were harvested on a glass filter using a cell harvester, the level of [^3H] thymidine taken up into the cells was determined using a liquid scintillation counter.

[3] = tested on: T cell lines (PJ, PR, PB) and T cell clones (PB 8-3, PB 8-2, PB 9-39); experiment: Determination of core sequence of Cry j 1 peptide No. 22 with T cell lines and clones
Source text: To determine the minimum amino acid sequence (core) of the Cry j 1 peptide No. 22 (p106-120) necessary for the T cell line and T cell clone proliferation response, one amino acid residue each was deleted from the N and C terminals of this peptide as shown in FIG. 15 to prepare eleven peptides, i.e., p107-120 (p22-2), P108-120 (p22-3), p109-120 (p22-4), p110-120 (p22-5), p111-120 (p22-6), p106-119 (p22-7), p106-118 (p22-8), p106-117 (p22-9), p106-116 (p22-10), and p106-115 (p22-11) using a peptide synthesizer (PSSM-8, manufactured by Shimadzu Seisakusho Ltd.). The T cell lines (PJ, PR, PB) derived from three patients with cedar pollinosis and which react with Cry j 1 Peptide No. 22, p106-120, and the T cell clones (PB 8-3, PB 8-2, PB 9-39) from one of the patients were examined for the reactivity with these 11 peptides in the same manner as in Examples 1 and 2. […] The results reveal that the p106-120 core sequence consists of nine residues of “FIKRVSNVI”(SEQ ID NO. 7) (the nine residues are designated as Cry j 1 #22 core).

[4] = tested on: Cha o 1-specific T cell line; experiment: Reactivity of Cha o 1-specific T cell line; conditions: from patients with hinoki pollinosis
Source text: (§1) Two peptides (Cha o 1 #8-Cry j 1 #22 core, Cha o 1 #32-Cry j 1 #22 core) were synthesized by joining Peptide No. 8 (p71-90: […] SEQ ID NO. 11) which is a T cell epitope of hinoki pollen allergen Cha o 1 (Japanese Patent Application N. Hei. 8-15327), or Peptide No. 32 ([…]: […] SEQ ID NO. 12) to Cry j 1 #22 core sequence “FIKRVSNVI”(SEQ ID NO. 7) obtained in Example 14 using a peptide synthesizer (PSSM-8, Shimadzu Seisakusho Ltd.). An RR sequence was inserted between Cha o 1 #8 and Cry j 1 #22 core and between Cha o 1 #32 and Cry j 1 #22 core, that is, Cha o 1 #8-Cry j 1 #22 core (SEQ NO: 4) and Cha o 1 #32-Cry j 1 #22 core (SEQ NO: 5).
(§2) A Cry j 1-specific T cell line and a Cha o 1-specific T cell line were prepared from the patients with cedar pollinosis and hinoki pollinosis, respectively. […] However, these T cell lines all react with the multi-epitope peptide of SEQ NO: 4 and with the multi-epitope peptide of SEQ NO: 5.

[5] = tested on: Cry j 1-specific T cell line; experiment: Reactivity of Cry j 1-specific T cell line; conditions: from patients with cedar pollinosis
Source text: as §1, §2

KSMKVTVAFNQFGPN [Cry j 1 Peptide No. 43]
recognition of peptide by allergen-specific T cell clones [1]: recognized | peptide-presenting restriction molecule (HLA class II molecules): DPA1*0101-DPB1*0501 | positivity index [2]: 679 | proliferation response of the T cell clones recognizing the respective epitope (T cell clones): react well

Cry j 1 Peptide No. 22: Cry j 1 overlapping peptide No. 22, p106-120 (PCVFIKRVSNVIIHG; Figure 15, p22-1.; listed as Cryptomeria japonica)
proliferation response ([3]; one T cell line and T cell clone): did not show any proliferation response | proliferation response ([3]; two T cell lines (PJ, PB) and two T cell clones (PB 8-2, PB 9-39)): proliferated | recognition of peptide by allergen-specific T cell clones [1]: recognized | reactivity of Cha o 1-specific T cell line [4]: does not react with | reactivity of Cry j 1-specific T cell line [5]: reacts with | peptide-presenting restriction molecule (HLA class II molecules): DRB5*0101 | positivity index [2]: 578 | proliferation response of the T cell clones recognizing the respective epitope (T cell clones): react well
